{"source": "patent US20250073209A1", "about": "“COVALENT TARGETING OF RhoA FOR CANCER THERAPY” (The University of Hong Kong, priority 2023, published 2025)", "key": {"HCT116 xenograft": {"test_system": "HCT116 xenograft", "assay": "Mouse HCT116 xenograft model", "format": "in vivo", "conditions": "nude mice, 10 mg/kg intraperitoneal", "experimental": "FIG. 7A is a graph showing inhibition of tumor growth by CL16 in mouse HCT116 xenografts through intraperitoneal injection at 10 mg/kg (n=6 per group). FIG. 7B is a graph showing inhibition of tumor growth by CL16 in mouse HT29 xenografts through intraperitoneal injection at 10 mg/kg (n=7). FIG. 7C is a graph showing the body weight of mice with HT29 xenografts throughout the treatment with CL16. FIG. 7D is a graph showing inhibition of tumor growth by CL16 in mouse SW620 xenografts through intraperitoneal injection at 10 mg/kg (n=6 per group). FIG. 7E is a bar graph showing the tumor weight of harvested tumors from the treated mice with SW620 xenografts. FIG. 7F is a graph showing the body weight of mice with SW620 xenografts throughout the treatment with CL16. Statistical analysis using a two-tailed Student's t-test. *P<0.05.\n7-week-old mice with weight around 20 g were inoculated subcutaneously with HCT116 (2×10^6 cells per mouse) or HT29 (3×10^6 cells per mouse) cells, in serum-free RMPI or Matrigel in PBS respectively. […] The tumor volume and body weight of the nude mice were measured throughout the treatment. The tumor volume was calculated by the equation: Volume (mm^3)=1×w^2/2, where 1 and w were the length and width of the tumor. At the end of the treatment, the mice were sacrificed and the tumor weight was measured. […]"}, "RhoA-GEF interactions": {"target": "T1, RhoA-GEF interactions (Homo sapiens, UniProt P61586)", "T1 construct": "host or cells: GEFs overexpressed in HEK293T lysates", "T1 sequence (P61586 whole entry)": "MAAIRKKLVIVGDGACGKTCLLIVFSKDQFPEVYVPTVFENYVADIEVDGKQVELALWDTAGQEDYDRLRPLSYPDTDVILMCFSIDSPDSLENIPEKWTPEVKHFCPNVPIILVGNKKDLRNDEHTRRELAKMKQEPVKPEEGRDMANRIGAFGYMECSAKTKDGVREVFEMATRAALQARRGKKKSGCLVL", "assay": "Co-immunoprecipitation of GST-RhoA with GEF-containing cell lysates", "format": "biochemical", "conditions": "GST-RhoA with HEK293T cell lysates", "experimental": "10 μg of purified GST-RhoA was immobilized on Glutathione resin (Pierce) and incubated with CL16 in GTP-exchange buffer (20 mM HEPES, 150 mM NaCl, 5 mM MgCl2, pH 7.4) for 1 hour. Then, the mixture was centrifuged at 700g for 2 min and supernatant was discarded. 120 μg of total cell lysate with overexpression of GEF (Arhgefl p-115, Arhgefl2 LARG DH-PH domain, Arhgef13 Akap Lbc) was added to the resin. The mixture was put on an end-to-end rotator and incubated at 4° C. for 4 hours. The resin was then washed, eluted and subjected to immunoblotting."}, "[1]": {"test_system": "normal colon fibroblast CCD-18Co cells", "assay": "MTT assay on normal colon fibroblasts", "format": "cell-based, human", "conditions": "48 h, compared with CRCs", "experimental": "HCT116 cells was seeded at 2,500 cells/well; HT29, LOVO and SW620 cells were seeded at 4,000 cells/well; CCD-18Co cells were seeded at 10,000/well; and SW480 cells were seeded at 12,000 cells/well in 96 well plate in triplicates. Cells were treated with a concentration gradient of CL16 for 48 hours. Then, cells were incubated with 10% 3-(4,5-Dimethylthiazol-2-yl)-2,5-diphenyltetrazolium bromide (MTT) solution ([…]) in 37° C. for 4 hours. Cells were then lyzed in 10% SDS in […] HCl. Absorbance of individual well was measured at 570 nm. IC50 values were analyzed by nonlinear best-fit regression using Prism Graphpad 9.\nAs discussed above, overexpression/hyperactivity of RhoA associated with poor prognosis and aggressive behaviors of CRCs (FIG. 8A). Thus, the anti-cancer and anti-metastatic properties of CL16 in CRCs were explored. First, it was confirmed that genetic knockdown of RhoA by siRNA slowed down colony formation and migration of CRCs by using staining (data not shown) and wound healing assay (FIG. 4A). MTT assay was used to determine cell viability of CRCs and normal colon fibroblast CCD-18Co cells treated with CL16 for 48 h (n=3 different biological replicates/group). A much lower expression level of RhoA in normal colon fibroblast CCD-18Co cells was also determined, as compared to CRCs, by western blotting (data not shown). […]"}}}
{"compound": "O=C(CCl)N1N=C(c2cc3ccccc3o2)CC1c1ccco1", "note": "(stereo not drawn) [CL16]", "values": [{"measurement": "tumor growth vs vehicle control", "setting": "HCT116 xenograft", "value": "significantly inhibited tumor growth"}, {"measurement": "RhoA interactions with ARHGEF1, LARG DH-PH domain, AKAP13 and ARHGAP4s", "setting": "RhoA-GEF interactions", "value": "disruption of RhoA interactions"}, {"measurement": "toxicity in normal cells (cell viability)", "setting": "[1]", "value": "much less toxic"}]}
